Holding throughout (test): DTP human tumour cell line panel, 48 h
Assay [1] relates to MDA-MB-435.
Assay [2] deals with NCI/ADR-RES ovarian.
Assay [3] relates to DLD-1 colon.
Assay [4] deals with KM20L2 colon.
Assay [5] has as its system SNB-78 CNS.
Assay [6] deals with LXFL 529 NSCLC.
Assay [7] relates to MDA-N.

Each structure is given as a SMILES string. Several values for one entry are separate records, joined by “and”; a condition that tells them apart may be missing. Identical values can stand only once.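 Test compounds were applied to cells in 96-well plates for 48 hours at 5 doses. The concentration for 50% growth inhibition is given as GI50. TGI marks complete inhibition of growth.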

What is called GI50 is the concentration that inhibits growth by half. By TGI is commonly meant the concentration at which net growth stops. Low readings indicate greater sensitivity of the cells, high ones lower sensitivity of the cells. `O=C(Cn1ccnc1[N+](=O)[O-])NCC(F)(F)C(F)(F)F`: in assay [1], the GI50 is over 100 µM and the TGI was over 100 µM. For the same molecule, in assay [2], the GI50 is over 100 µM and the TGI was over 100 µM.

For `Clc1ccc(CO/N=C(\Cn2ccnc2)c2ccc(Cl)cc2Cl)c(Cl)c1`, in assay [1], the GI50 is 1.66 µM and the TGI was found to be 3.19 µM. Besides, in assay [2], the GI50 was 1.27 µM and the TGI stood at 2.9 µM.

`COc1ccc2c(c1)Cc1c-2c(NN)nc2ccccc12`: in assay [1], the GI50 was 3.8 µM and the TGI is over 100 µM. In assay [2], the GI50 was 21 µM and the TGI was over 100 µM.

Regarding `CC(=O)Nc1ccc(/C=C/C(=O)c2sc(C(N)=S)nc2C)cc1`, the TGI in assay [3], in assay [4] and in assay [5] was over 100 µM in each case.

`Cn1cc(C2=C(c3c4n(c5ccccc35)CCC(CN)CC4)C(=O)NC2=O)c2ccccc21` (centres undefined): in assay [1], the GI50 is 3.35 µM and the TGI is 6.76 µM. In assay [2], the GI50 is over 25 µM and the TGI was over 25 µM.

As to `Cc1cccc(N=C2c3cc([N+](=O)[O-])ccc3-c3c2cc([N+](=O)[O-])cc3[N+](=O)[O-])c1`, in assay [1], the GI50 is 3.49 µM and the TGI was found to be 10.8 µM. For the same molecule, in assay [2], the GI50 is 12.5 µM and the TGI was over 100 µM.

For `CCCCCCCCCC(=O)OCC1OC(n2cc(F)c(=O)[nH]c2=O)C(N)C(OC(=O)CCCCCCCCC)C1O` (centres undefined), the TGI in assay [4] amounted to 34.8 µM; in assay [6] it was 30.2 µM; in assay [5], 36.8 µM.

On to `CC1C(=O)N(C)C2(CO)C(=O)O[C@H](C)C12O` (some centres undefined), for which the TGI in assay [3] and in assay [5] was over 100 µM each time.

For `CN(C)CC1CCn2c(c(C3=C(c4cn(C)c5ccccc45)C(=O)NC3=O)c3ccccc32)C1` (centres undefined), in assay [1], the GI50 is 3.7 µM and the TGI is 7.49 µM. In assay [2], the GI50 is 5.17 µM and the TGI worked out at 16.6 µM.

Take `CC1(C)C2CCC13C(=O)C1OC3(C2)C2C(=O)c3c(O)ccc(O)c3C(=O)C12` (centres undefined): in assay [1], the GI50 is 34.9 µM and the TGI was over 74.5 µM. In addition, in assay [2], the GI50 was 17.5 µM and the TGI turned out to be 59.1 µM.

Turning to `Cc1ccc(S(=O)(=O)n2cc(C(=O)C(=O)Nc3ccncc3)c3ccccc32)cc1`, in assay [2], the GI50 is 0.406 µM and the TGI is over 34.1 µM.

As to `O=C(CC(=O)C(F)(F)F)c1csc2ccccc12`, the TGI in assay [4], in assay [6] and in assay [5] was over 100 µM in each case.

Turning to `COc1cc2c(cc1OC)[C@@]1(C)C(=O)c3cc4c(cc3[C@H]1N(C)C2=O)OCO4`, in assay [1], the GI50 was over 100 µM and the TGI was over 100 µM. Moreover, in assay [2], the GI50 was 59.6 µM and the TGI is over 100 µM.

On to `COc1ccc(Nc2ccnc(NCCCNc3ccnc4cc(Cl)ccc34)n2)cc1`, for which the GI50 in assay [1] was 0.243 µM; in assay [2] it was 2.78 µM. For the same molecule, the TGI in assay [1] was 0.705 µM; in assay [2] it was 10.4 µM.

For the molecule `O=C(O)c1cccc(CC(Br)C(=O)O)c1` (centres undefined), the TGI in assay [1], in assay [7] and in assay [2] was over 100 µM each time.

In the case of `C[C@]12CCC(=O)C=C1CC[C@@H]1[C@@H]2CC[C@]2(C)C(=O)/C(=C/c3cccc(OCCN4CCOCC4)c3)C[C@@H]12`, in assay [1], the GI50 is 4.92 µM and the TGI came out at 21.8 µM.

For the molecule `O=C(O)CCC1CCC(c2cc(F)ccc2F)(S(=O)(=O)c2ccc(Cl)cc2)CC1` (centres undefined), in assay [1], the GI50 is 14.5 µM and 26.5 µM; the TGI is 31.2 µM and > 92.7 µM. In assay [2], the GI50 is 25.8 µM and > 74.3 µM; the TGI was 99.7 µM and > 100 µM.

Consider `O=C1/C(=C/C(Cl)=C/c2ccccc2)SC(=S)N1CCc1ccc(O)cc1`, for which, in assay [1], the GI50 was 1.61 µM and the TGI amounted to 4.27 µM. Also, in assay [2], the GI50 was 2.16 µM and the TGI was over 100 µM.

Turning to `[N-]=[N+]=CC(=O)OCC(N)C(=O)O` (centres undefined), the results for the GI50 in assay [1] and in assay [2] were 0.457 µM and 3.2 µM, respectively. Also, the TGI in assay [1] and in assay [2] was over 100 µM throughout.

Regarding `Cn1cnc2c(NCc3ccccc3)nc(NCCO)nc21`, the GI50 in assay [1] was 114 µM. The TGI worked out at 313 µM in assay [1] and 319 µM in assay [2].

Take `O=C(Nc1ccc(Br)c(Cl)c1)c1cc(F)ccc1O`: in assay [1], the GI50 is 1.01 µM and the TGI was over 15.8 µM. Besides, in assay [2], the GI50 was 1.04 µM and the TGI is over 15.6 µM.

Take `CCN(CC)CCOc1cc2c(C(=O)OC)c(C)oc2cc1C(C)=O`: the GI50 in assay [1] was 16.1 µM; in assay [2], 13.6 µM. For the same molecule, the TGI in assay [1] is 33.9 µM; in assay [2] it was 26.6 µM.

For `CN1CCN(Cc2ccc(NC(=O)c3cncc(C#Cc4c(N)ncc5cc(F)ccc45)c3)cc2C(F)(F)F)CC1`, in assay [1], the GI50 is 0.532 µM and the TGI stood at 1.15 µM. Further, in assay [2], the GI50 is 1.03 µM and the concentration for total growth inhibition (TGI) came out at 2.46 µM.

For `CCOC(=O)c1cc2ncccc2c2ccccc12`, the TGI in assay [1], in assay [7] and in assay [2] was over 100 µM throughout.

`Cc1c(Cl)ccc2c1NC(=O)C2(O)C1Cc2ccccc2C1=O` (centres undefined): the TGI in assay [3], in assay [4], in assay [6] and in assay [5] was over 100 µM in each case.

Take `O=C(O)CC1(C(=O)O)CCCCC1`: the concentration for total growth inhibition (TGI) in assay [1], in assay [7] and in assay [2] was over 100 µM in each case.

`CN(CCC(=O)O)S(=O)(=O)c1ccccc1`: the TGI in assay [1], in assay [7] and in assay [2] was over 100 µM each time.

(Values after PubChem BioAssay (NCI).)
